In US20260231947A1, “IMPROVED BIOCIDE COMPOSITIONS” (Solugen, Inc., priority 2021, published 2026):
Values after ≈ are worked out from the molar mass of the structure shown. Where two headings read alike, the source gives them in different places.

Legend:
Wild Strain APB = assay: MIC, microtiter plate, wild strain acid producing bacteria; format: cell-based
Protocol: (§1) The ability of an BF to inhibit microorganisms was investigated. Specifically, three bacteria types were tested to compare the MIC of a biocide, a biochelant and IBFs of the present disclosure. The bacteria types utilized were isolated from produced water from the Marcellus shale formation, and identified as (i) general aerobic bacteria identified as Pseudomonas aeruginosa and Enterobacter aggolomerans (ii) Wild strain sulfate reducing bacteria and (iii) acid producing bacteria. General aerobic bacteria aid in the formation of biofilms. Most of these bacteria will be found either floating freely in water (planktonic organisms) or will be attached to various surfaces (sessile organisms). Wild strain Sulfate Reducing Bacteria and Acid Producing Bacteria isolated from the produced fluid was also used. Wild strain Sulfate Reducing Bacteria (WSRB) are the most common anaerobic organisms found in the oil and gas industry. WSRB are an issue as they will reduce sulfate into sulfides which can turn into hydrogen sulfide, souring the fluid in the oil and gas well.
(§2) The bacteria tested were placed in a microtiter plate, where a high throughput test was performed to determine MIC (minimum inhibitor concentration). […] The BE contained 1:1 biocide:biochelant each at 50 ppm.

[1] = test system: bacteria isolated from produced water from the Marcellus shale formation; assay: MIC, Example 1, maximum reduction over the three bacteria types; format: cell-based; settings: biocide used in conjunction with biochelants, versus biocide alone
Protocol: as §1, §2

[2] = test system: Wild Strain General Bacteria; assay: MIC, microtiter plate, general aerobic bacteria from produced water; format: cell-based, Pseudomonas aeruginosa and Enterobacter aggolomerans
Protocol: as §1, §2

[3] = test system: General Wild Strain Bacteria; assay: MIC, Example 2, TTPC and bleach; format: cell-based
Excerpt: The biocides used were tributyl tetradecyl phosphonium chloride (TTPC, BELLACIDE 350) and household bleach.

Escherichia coli = assay: MIC, Example 3, quaternary ammonium biocides
Excerpt: (§3) The ability of an IBF to inhibit microorganisms was investigated. The biocides used as components of the IBF were quaternary ammonium compounds. […] The bacterial strains tested were Pseudomonas aeruginosa, Staphylococcus aureus, Escherichia coli and Klebsiella pneumoniae.

Staphylococcus aureus = assay: MIC, Example 3, quaternary ammonium biocides
Excerpt: as §3

Wild Strain SRB = assay: MIC, microtiter plate, wild strain sulfate reducing bacteria; format: cell-based
Protocol: as §1, §2

Pseudomonas aeruginosa = assay: MIC, Example 3, quaternary ammonium biocides
Excerpt: as §3

Klebsiella pneumoniae = assay: MIC, Example 3, quaternary ammonium biocides
Excerpt: as §3

[4] = Wild Strain APB, IBF 1:1 biocide:biochelant, read-out: MIC
[5] = Wild Strain General Bacteria, IBF 1:1 biocide:biochelant, read-out: MIC
[6] = General Wild Strain Bacteria, read-out: MIC

Compound | MIC (Wild Strain APB; [4]) | maximum MIC reduction [1] | MIC [2, 5] | MIC [3, 6] | MIC (Escherichia coli) | MIC (Staphylococcus aureus) | MIC (Pseudomonas aeruginosa) | MIC (Klebsiella pneumoniae) | further results
O=[N+]([O-])C(Br)(CO)CO [10% BRONOPOL, 2-bromo-2-nitro-1,3-propanediol] | 62.5 µg/mL (≈ 0.313 mM) | 98% | 125 µg/mL (≈ 0.625 mM) | – | – | – | – | – | –
O=CCCCC=O [50% Glut, glutaraldehyde] | 500 µg/mL (≈ 4.99 mM) | – | 1000 µg/mL (≈ 9.99 mM) | – | – | – | – | – | –
CCCCCCCCCCCCCC[P+](CCCC)(CCCC)CCCC.[Cl-] [Bellacide 350 (TTPC), tributyl tetradecyl phosphonium chloride] | – | – | – | 500 µg/mL | – | – | – | – | MIC ([3]; General Wild Strain Bacteria, with biochelant, read-out: MIC of the biocide as a component of an IBF): 15.6 µg/mL
O=C(O)[C@H](O)[C@@H](O)[C@H](O)[C@H](O)CO [G050, gluconic acid] | – | – | – | – | 5000 µg/mL (≈ 25.5 mM) | 5000 µg/mL (≈ 25.5 mM) | 5000 µg/mL (≈ 25.5 mM) | 5000 µg/mL (≈ 25.5 mM) | MIC (Wild Strain APB): 625 µg/mL (≈ 3.19 mM); MIC (Wild Strain SRB): 312 µg/mL (≈ 1.59 mM); MIC [2]: 10000 µg/mL (≈ 51 mM); MIC [3]: 10000 µg/mL (≈ 51 mM)
O=C(O)[C@@H](O)[C@@H](O)[C@H](O)[C@@H](O)C(=O)O [GA50, glucaric acid] | 625 µg/mL (≈ 2.97 mM) | – | 2500 µg/mL (≈ 11.9 mM) | 2500 µg/mL (≈ 11.9 mM) | 625 µg/mL (≈ 2.97 mM) | 5000 µg/mL (≈ 23.8 mM) | 1250 µg/mL (≈ 5.95 mM) | 1250 µg/mL (≈ 5.95 mM) | –
tetrakis hydroxymethyl-phosphonium sulfate [75% THPS] | – | 97% | – | – | – | – | – | – | MIC (Wild Strain APB; Wild Strain APB, IBF 1:1 biocide:biochelant): 62.5 ppm; MIC (Wild Strain SRB; Wild Strain SRB, IBF 1:1 biocide:biochelant): 1000 ppm; MIC ([2]; Wild Strain General Bacteria, IBF 1:1 biocide:biochelant): 1000 ppm
